Structures can show the parent of a compound that is named as a salt.
Test system: hair cells
Assay: Hair cell toxicity assay in zebrafish (neomycin-induced hair cell death, DASPEI staining of neuromasts)
Format: in vivo
Conditions: Danio rerio; for Emax at 2.8 µM: maximum observed @ 2.8 μM test compound; for EC50: zebrafish larvae 5-7 dpf, 1 h pre-treatment, then 200 micromolar neomycin + test compound 30 min, read-out: HC50 (concentration that would produce 50% hair cell survival); for Emax at 25 µM: maximum observed @ 25 μM test compound; for Emax at 8.3 µM: maximum observed @ 8.3 μM test compound
Method: Zebrafish are bred and newly fertilized embryos are collected the week prior and raised at 28.5° C. in petri dishes containing embryo medium. Newly hatched free-swimming larvae are fed paramecium and dry fish food at 4 days post fertilization (dpf) with lights on. For treatment, fish 5-7 dpf are transferred to cell culture baskets and place within a well of a 6-well plate containing 7 milliliters of 1× embryo medium. Typically, tests are done with ten fish per basket but work well with up to 50 fish. All treatment and wash volumes are 7 milliliters. • 1. Fish are pre-treated with test compound for 1 hour. […] Treat with 200 micromolar neomycin (neomycin sulfate, Sigma, St. Louis, Mo., catalog #N1142)+test compound for 30 minutes. • 3. Rinse fish briefly 4 times in embryo medium and add 700 μl of 0.05% DASPEI (2-{4-(dimethylamino)styryl}-N-ethylpyridinium iodide, Molecular Probes, Eugene, Oreg.) and allowed to stain for 15 minutes. • 4. Rinse twice in embryo medium and add 350 μl MS222 (0.55 ug/ml final concentration, 3-aminobenzoic acid ethyl ester, methansulfoneate salt, Sigma, St. Louis, Mo.) to anesthetize. • 5. View with epifluorescence dissecting microscope equipped with a DAPSEI filter set (excitation […], Chroma Technologies, Brattleboro, Vt.). For assessment of initial dose response curves, fish are transferred to wide depression slide with wide-bore pipette. The DASPEI staining of ten neuromasts (SO1, SO2, IO1, IO2, IO3, IO4, M2, MI1, MI2 and O2) on one side of an animal are evaluated. Each neuromast is scored for presence of DASPEI staining (score=2), reduced DASPEI staining (score=1) or absence of DASPEI staining (score=0). Total scores for an animal are tabulated, to give a composite score that can range from 0 to 20. Average scores and standard deviations are calculated for animals in each treatment group. Scores are normalized to control group (vehicle only, no drug, no neomycin) and expressed as % hair cell survival. HCmax is the maximum protection (hair cell survival) observed. • 6. If at least 50% hair cells survive, the HC50 (concentration that would produce 50% hair cell survival) is calculated as a linear extrapolation from the nearest concentrations of protective drug that produce hair cell survival below and above 50%. If less than 50% hair cells survive, the HC50 is not determined. 1× embryo media (standard lab EM): • 1 mM MgSO4, • 0.15 mM KH2PO4, • 0.05 mM Na2HPO4, • 1 mM CaCl2, • 0.5 mM KCl • 15 mM NaCl • 0.7 mM NaHCO3

[1] = 200 micromolar neomycin, read-out: Max HC Protection (HCmax, % hair cell survival)

CC(C1CCC1)N1CCc2c(sc(NC(=O)Nc3ccc(Cl)cc3)c2C(N)=O)C1 (racemic) [Example 47, (+/−)-2-[3-(4-chlorophenyl)ureido]-6-(1-cyclobutylethyl)-4,5,6,7-tetrahydrothieno[2,3-c]pyridine-3-carboxamide hydrochloride]
Emax at 2.8 µM [1]: 73% | EC50: < 1000 nM

CC[N+]1(C)CCc2c(sc(NC(N)=O)c2C(N)=O)C1 (centres unmarked) [Example 184, 3-Carbamoyl-6-ethyl-6-methyl-2-ureido-4,5,6,7-tetrahydrothieno[2,3-c]pyridin-6-ium iodide]
Emax at 25 µM [1]: 30%

CN(C)C(=O)CCN1CCc2c(sc(NC(=O)Nc3ccc(Cl)cc3)c2C(N)=O)C1 [Example 53, 2-[3-(4-Chlorophenyl)ureido]-6-[3-(dimethylamino)-3-oxopropyl]-4,5,6,7-tetrahydrothieno[2,3-c]pyridine-3-carboxamide hydrochloride]
Emax at 25 µM [1]: 103% | EC50: 1000 to 10000 nM

NC(=O)c1c(NC(=O)Nc2ccc3ccccc3c2)sc2c1CCN(CCCCO)C2 [Example 37, 6-(4-Hydroxybutyl)-2-[3-(naphthalen-2-yl)ureido]-4,5,6,7-tetrahydrothieno[2,3-c]pyridine-3-carboxamide hydrochloride]
Emax at 25 µM [1]: 105% | EC50: 1000 to 10000 nM

CC(C)(C)OC(=O)CCCCC[N+]1(C)CCc2c(sc(NC(=O)Nc3ccc(Cl)cc3)c2C(N)=O)C1 (centres unmarked) [Example 156, 6-(6-tert-Butoxy-6-oxohexyl)-3-carbamoyl-2-[3-(4-chlorophenyl)ureido]-6-methyl-4,5,6,7-tetrahydrothieno[2,3-c]pyridin-6-ium iodide]
Emax at 2.8 µM [1]: 96% | EC50: < 1000 nM

C[N+]1(CC2CCC2)C2CCC1c1sc(NC(=O)Nc3ccc(Cl)cc3)c(C(N)=O)c1C2 (racemic) [Example 189, (+/−)-3-Carbamoyl-2-[3-(4-chlorophenyl)ureido]-9-(cyclobutylmethyl)-9-methyl-5,6,7,8-tetrahydro-4H-thienocyclohepten-5,8-iminium trifluoroacetate]
Emax at 25 µM [1]: 96% | EC50: 1000 to 10000 nM

CCOC(=O)CCCN1CCc2c(sc(NC(=O)Nc3ccc(Cl)cc3)c2C(N)=O)C1 [Example 21, Ethyl 4-{3-carbamoyl-2-[3-(4-chlorophenyl)ureido]-4,5-dihydrothieno[2,3-c]pyridin-6(7H)-yl}butanoate hydrochloride]
Emax at 2.8 µM [1]: 57% | EC50: 1000 to 10000 nM

CCCC[N+]1(C)CCc2c(sc(NC(=O)Nc3ccc(Cl)cc3)c2C(N)=O)C1 (centres unmarked) [Example 219, 6-butyl-3-carbamoyl-2-{[(4-chlorophenyl)carbamoyl]amino}-6-methyl-4H,5H,6H,7H-thieno[2,3-c]pyridin-6-ium]
Emax at 25 µM [1]: 92% | EC50: < 1000 nM

CCN1CCc2sc(NC(=O)Nc3ccc(Cl)cc3)c(C(N)=O)c2CC1 [Example 115, 2-[3-(4-Chlorophenyl)ureido]-6-ethyl-5,6,7,8-tetrahydro-4H-thieno[2,3-d]azepine-3-carboxamide hydrochloride]
Emax at 25 µM [1]: 99% | EC50: 1000 to 10000 nM

CC(C)(C)OC(=O)NCCCN1CCc2c(sc(NC(=O)Nc3ccc(Cl)cc3)c2C(N)=O)C1 [Example 205, tert-butyl N-[3-(3-carbamoyl-2-{[(4-chlorophenyl)carbamoyl]amino}-4H,5H,6H,7H-thieno[2,3-c]pyridin-6-yl)propyl]carbamate]
Emax at 6.3 µM (maximum observed @ 6.3 μM test compound, 200 micromolar neomycin, read-out: Max HC Protection (HCmax, % hair cell survival)): 81% | EC50: 1000 to 10000 nM

CC[N+]1(C)CCc2c(sc(NC(=O)Nc3ccc(Br)cc3)c2C(N)=O)C1 (centres unmarked) [Example 220, 2-{[(4-bromophenyl)carbamoyl]amino}-3-carbamoyl-6-ethyl-6-methyl-4H,5H,6H,7H-thieno[2,3-c]pyridin-6-ium]
Emax at 25 µM [1]: 98% | EC50: < 1000 nM

C[N+]1(CC2CCC2)CCc2c(sc(NC(=O)Nc3ccc(Cl)cc3)c2C(N)=O)C1 (centres unmarked) [Example 145, 3-Carbamoyl-2-[3-(4-chlorophenyl)ureido]-6-(cyclobutylmethyl)-6-methyl-4,5,6,7-tetrahydrothieno[2,3-c]pyridin-6-ium iodide]
Emax at 8.3 µM [1]: 95% | EC50: < 1000 nM

CCN1CCc2c(sc(NC(=O)Nc3ccc(C#N)cc3)c2C(N)=O)C1 [Example 67, 2-[3-(4-Cyanophenyl)ureido]-6-ethyl-4,5,6,7-tetrahydrothieno[2,3-c]pyridine-3-carboxamide hydrochloride]
Emax at 8.3 µM [1]: 20%

CCN1CCc2c(sc(NC(=O)NCc3cccc(Cl)c3)c2C(N)=O)C1 [Example 75, 2-[3-(3-Chlorobenzyl)ureido]-6-ethyl-4,5,6,7-tetrahydrothieno[2,3-c]pyridine-3-carboxamide hydrochloride]
Emax at 25 µM [1]: 24%

C[N+]1(CC2CCCC2)CCc2c(sc(NC(=O)Nc3ccc(Cl)cc3)c2C(N)=O)C1 (centres unmarked) [Example 153, 3-Carbamoyl-2-[3-(4-chlorophenyl)ureido]-6-(cyclopentylmethyl)-6-methyl-4,5,6,7-tetrahydrothieno[2,3-c]pyridin-6-ium iodide]
Emax at 8.3 µM [1]: 98% | EC50: < 1000 nM

CC[N+]1(CC)CCc2c(sc(NC(=O)Nc3ccc(Cl)cc3)c2C(N)=O)C1 [Example 139, 3-Carbamoyl-2-[3-(4-chlorophenyl)ureido]-6,6-diethyl-4,5,6,7-tetrahydrothieno[2,3-c]pyridin-6-ium iodide]
Emax at 25 µM [1]: 99% | EC50: < 1000 nM

CC[N+]1(C)CCc2c(sc(NC(=O)Nc3ccc4cc(F)ccc4c3)c2C(N)=O)C1 (centres unmarked) [Example 180, 3-Carbamoyl-6-ethyl-2-[3-(6-fluoronaphthalen-2-yl)ureido]-6-methyl-4,5,6,7-tetrahydrothieno[2,3-c]pyridin-6-ium iodide]
Emax at 25 µM [1]: 102% | EC50: 1000 to 10000 nM

CC(C)(C)OC(=O)CCN1CCc2c(sc(NC(=O)Nc3ccc(Cl)cc3)c2C(N)=O)C1 [Example 51, tert-Butyl 3-{3-Carbamoyl-2-[3-(4-chlorophenyl)ureido]-4,5-dihydrothieno[2,3-c]pyridin-6(7H)-yl}propanoate]
Emax at 8.3 µM [1]: 55% | EC50: 1000 to 10000 nM

NC(=O)c1c(NC(=O)Nc2ccc(Cl)c3ccccc23)sc2c1CCN(CC1CCC1)C2 [Example 40, 2-[3-(4-Chloronaphthalen-1-yl)ureido]-6-(cyclobutylmethyl)-4,5,6,7-tetrahydrothieno[2,3-c]pyridine-3-carboxamide hydrochloride]
Emax at 8.3 µM [1]: 62% | EC50: 1000 to 10000 nM

NC(=O)c1c(NC(=O)Nc2ccc(Cl)cc2)sc2c1CC1CCC2N1CC1CCC1 (racemic) [Example 132, (+/−)-2-[3-(4-Chlorophenyl)ureido]-9-(cyclobutylmethyl)-5,6,7,8-tetrahydro-4H-5,8-epiminocyclohepta[b]thiophene-3-carboxamide hydrochloride]
Emax at 2.8 µM [1]: 97% | EC50: < 1000 nM

C[N+]1(C2CCOCC2)CCc2c(sc(NC(=O)Nc3ccc(Cl)cc3)c2C(N)=O)C1 (centres unmarked) [Example 143, 3-Carbamoyl-2-[3-(4-chlorophenyl)ureido]-6-methyl-6-(tetrahydro-2H-pyran-4-yl)-4,5,6,7-tetrahydrothieno[2,3-c]pyridin-6-ium iodide]
Emax at 25 µM [1]: 96% | EC50: 1000 to 10000 nM

CC(C)(C)C[N+]1(C)CCc2c(sc(NC(=O)Nc3ccc(Cl)c4ccccc34)c2C(N)=O)C1 (centres unmarked) [Example 183, 3-Carbamoyl-2-[3-(4-chloronaphthalen-1-yl)ureido]-6-methyl-6-neopentyl-4,5,6,7-tetrahydrothieno[2,3-c]pyridin-6-ium chloride]
Emax at 8.3 µM [1]: 70% | EC50: 1000 to 10000 nM

— patent US9416141B2 (University of Washington through its Center for …, priority 2012, dated 2016)
